Reference: patent publication US8921366B2, “Substituted triazolo-pyridazine derivatives” (Concert Pharmaceuticals, Inc., priority 2008, dated 2014)

What was measured:
[1] = Metabolic stability in rat liver microsomes; assay type: in vitro ADME; conditions: for parent compound remained intact / stability in rat microsomes: 30 minutes incubation; for half-life at 0.25 µM: pH 7.4, calculated from slope of ln % parent remaining vs time, read-out: in vitro half-life
Procedure: (§1) Human liver microsomes (20 mg/mL) and rat liver microsomes (20 mg/mL) were obtained from Xenotech, LLC (Lenexa, Kans.). β-nicotinamide adenine dinucleotide phosphate, reduced form (NADPH), magnesium chloride (MgCl2), and dimethyl sulfoxide (DMSO) were purchased from Sigma-Aldrich. 7.5 mM stock solutions of test compounds (L-838417, Compound 101, Compound 103, Compound 104 and Compound 105) were prepared in DMSO. The 7.5 mM stock solutions were diluted to 12.5 μM in acetonitrile (ACN). The 20 mg/mL […] were diluted to […] in 0.1 M potassium phosphate buffer, pH 7.4, containing 3 mM MgCl2. The diluted microsomes (375 μL) were added to wells of a 96-well deep-well polypropylene plate in triplicate. 10 μL of the 12.5 μM test compound was added to the microsomes and the mixture was pre-warmed for 10 minutes. Reactions were initiated by addition of 125 μL pre-warmed NADPH solution. The final reaction volume is 0.5 mL and contained 0.5 mg/mL human liver microsomes, 0.25 μM test compound, and 2 mM NADPH in 0.1 M potassium phosphate buffer, pH 7.4, and 3 mM MgCl2. The reaction mixtures are incubated at 37° C., and 50 μL aliquots were removed at 0, 5, 10, 20, and 30 minutes and added to shallow-well 96-well plates which contained 50 μL of ice-cold ACN with internal standard to stop the reactions. The plates were stored at 4° C. for 20 minutes after which 100 μL of water was added to the wells of the plate before centrifugation to pellet precipitated proteins. Supernatants were transferred to another 96-well plate and analyzed for amounts of parent remaining by LC-MS/MS using an Applied Bio-systems API 4000 mass spectrometer. 7-ethoxycoumarin (1 μM) was used as a positive control. The in vitro t1/2s for test compounds were calculated from the slopes of the linear regression of % parent remaining (ln) vs incubation time relationship, using the formula: in vitro t1/2=0.693/k, where k=−[slope of linear regression of % parent remaining(ln) vs incubation time] Data analysis is performed using Microsoft Excel Software.

[2] = Metabolic stability in human liver microsomes; assay type: in vitro ADME; conditions: for stability in human liver microsomes: 30 minute incubation
Procedure: as §1

[3] = Pharmacokinetics after intravenous administration to rats; assay type: in vivo, Sprague-Dawley rats; conditions: for clearance / half-life / AUC(0-t): rat, plasma, 1 mg/kg each as 1:1:1 mixture, male Sprague-Dawley rats; for AUC(0-t): read-out: AUC0-6; for AUC0-6 % Change over L-838417 / AUC0-6 relative to undeuterated L-838417 / CL % Change over L-838417 / cleared more slowly than L-838417 / longer half-life than undeuterated L-838417 / t1/2 % Change over L-838417: rats
Procedure: (§2) Three male Sprague-Dawley rats (200-250 g each) were cannulated in the jugular vein and were administered a single dose containing 1 mg/kg each of L-838417, Compound 103 and Compound 105 (as a 1:1:1 mixture containing 1 mg/mL of each of the three compounds in 10% dimethyl sulfoxide (DMSO), 10% N,N-dimethylacetamide (DMA), and 60% polyethylene glycol (PG) through the jugular cannula. Three additional male Sprague-Dawley rats (200-250 g each) were administered a single dose containing 1 mg/kg each of L-838417, Compound 103 and Compound 105 (as a 1:1:1 mixture containing 1 mg/mL of each of the three compounds in 10% dimethyl sulfoxide (DMSO), 10% N,N-dimethylacetamide (DMA), and 60% polyethylene glycol (PG) by oral gavage. Blood (0.25 mL) from intravenously treated test rats was collected retro-orbitally at 2, 5, 15, and 30 minutes, and 1, 2, 4, and 6 hours post-dosing. Blood (0.25 mL) from orally treated test rats was collected retro-orbitally at 5, 15, 30, and 45 minutes, and 1, 2, 4, and 6 hours post-dosing. Blood was collected into tubes containing K2EDTA as anticoagulant at the above mentioned time points. Blood samples were stored on ice and then centrifuged to obtain plasma. The plasma (˜[…]) was aliquoted into deep 96-well plates and stored at −80° C. until analysis by LC-MS/MS using an Applied Bio-systems API 4000 mass spectrometer.

[4] = Pharmacokinetics after oral administration to rats; assay type: in vivo, Sprague-Dawley rats; conditions: for AUC0-6 % Change over L-838417 / AUC0-6 relative to undeuterated L-838417 / Cmax % Change over L-838417 / Cmax relative to L-838417: oral, rats; for Cmax / AUC(0-t): rat, plasma, oral gavage, 1 mg/kg each as 1:1:1 mixture, male Sprague-Dawley rats; for AUC(0-t): read-out: AUC0-6
Procedure: as §2

parent compound remained intact [1]	half-life at 0.25 µM [1]	stability in human liver microsomes [2]	stability in rat microsomes [1]	clearance [3]	half-life [3]	AUC(0-t) [3]	AUC0-6 % Change over L-838417 [3]	AUC0-6 relative to undeuterated L-838417 [3]	CL % Change over L-838417 [3]	cleared more slowly than L-838417 [3]	longer half-life than undeuterated L-838417 [3]	t1/2 % Change over L-838417 [3]	AUC0-6 % Change over L-838417 [4]	AUC0-6 relative to undeuterated L-838417 [4]	Cmax % Change over L-838417 [4]	Cmax relative to L-838417 [4]	Cmax [4]	AUC(0-t) [4]	Structure (SMILES)	further results
approximately 70%	52.7 min	stable																	[2H]C([2H])(Oc1nn2c(-c3cc(F)ccc3F)nnc2cc1C(C)(C)C)c1ncnn1C([2H])([2H])[2H] [Compound 101, 7-tert-Butyl-3-(2,5-difluorophenyl)-6-((1-(methyl-d3)-1H-1,2,4-triazol-5-yl)-1,1-d2-methoxy)-[1,2,4]triazolo[4,3-b]pyridazine]	
		stable	stable	8 mL/min/kg	75 ± 8.4 min	1920 ± 200 ng·h/mL	+131%	greater than two-fold higher	−62%	approximately 60%	approximately 80%	+79%	+156%	greater than two and a half-fold higher	+116%	greater than two-fold higher	277 ± 76 ng/mL	1260 ± 289 ng·h/mL	[2H]C([2H])([2H])C(c1cc2nnc(-c3cc(F)ccc3F)n2nc1OCc1ncnn1C)(C([2H])([2H])[2H])C([2H])([2H])[2H] [Compound 103, 7-(tert-Butyl-d9)-3-(2,5-difluorophenyl)-6-((1-methyl-1H-1,2,4-triazol-5-yl)methoxy)-[1,2,4]triazolo[4,3-b]pyridazine]	
		stable	stable																[2H]C([2H])([2H])n1ncnc1COc1nn2c(-c3cc(F)ccc3F)nnc2cc1C(C([2H])([2H])[2H])(C([2H])([2H])[2H])C([2H])([2H])[2H] [Compound 104, 7-(tert-Butyl-d9)-3-(2,5-difluorophenyl)-6-((1-(methyl-d3)-1H-1,2,4-triazol-5-yl)-methoxy)-[1,2,4]triazolo[4,3-b]pyridazine]	
		stable	stable	7.67 mL/min/kg	76.2 ± 8.4 min	1960 ± 190 ng·h/mL	+136%	greater than two-fold higher	−60%	approximately 60%	approximately 80%	+81%	+154%	greater than two and a half-fold higher	+119%	greater than two-fold higher	280 ± 80 ng/mL	1250 ± 272 ng·h/mL	[2H]C([2H])(Oc1nn2c(-c3cc(F)ccc3F)nnc2cc1C(C([2H])([2H])[2H])(C([2H])([2H])[2H])C([2H])([2H])[2H])c1ncnn1C([2H])([2H])[2H] [Compound 105, 7-(tert-Butyl-d9)-3-(2,5-difluorophenyl)-6-((1-(methyl-d3)-1H-1,2,4-triazol-5-yl)-1,1-d2-methoxy)-[1,2,4]triazolo[4,3-b]pyridazine]	
approximately 70%	50.5 min			18.3 mL/min/kg	42 ± 2.4 min	831 ± 86 ng·h/mL											128 ± 40 ng/mL	491 ± 95 ng·h/mL	Cn1ncnc1COc1nn2c(-c3cc(F)ccc3F)nnc2cc1C(C)(C)C [Compound L-838417, 7-tert-butyl-3-(2,5-difluorophenyl)-6-(1-methyl-1H-1,2,4-triazol-5-ylmethoxy)[1,2,4]triazolo[4,3-b]pyridazine, reference compound]	parent compound remained intact ([2]; 30 minutes incubation, 0.25 μM test compound, 37° C.): approximately 70%; half-life at 0.25 µM ([2]; pH 7.4, calculated from slope of ln % parent remaining vs time, read-out: in vitro half life): 54.4 min
